According to BindingDB's records for doi:10.1111/cbdd.12142 (Delhi Institute of Pharmaceutical Sciences and Research, 2013):

Molecular target: Dipeptidyl peptidase 4 (Homo sapiens, UniProt P27487)
Assay: In vitro DPP IV enzyme inhibition assay
Conditions: 37 °C
Procedure: Following the manufacturer's guidelines, the assay was performed using 96-well flat-bottomed microtitre plate followed by addition of assay buffer, DPP IV enzyme and chromogenic substrate (HGly-Pro-pNA). Test compounds were dissolved in DMSO at different concentrations of 25, 50, 100, 200 µg/mL, and 20 µL were added to each well after further dilutions. The plate was incubated at 37°C for 10 min and read continuously at A-405 nm.

Dipeptidyl peptidase 4, sequence (P27487 whole entry): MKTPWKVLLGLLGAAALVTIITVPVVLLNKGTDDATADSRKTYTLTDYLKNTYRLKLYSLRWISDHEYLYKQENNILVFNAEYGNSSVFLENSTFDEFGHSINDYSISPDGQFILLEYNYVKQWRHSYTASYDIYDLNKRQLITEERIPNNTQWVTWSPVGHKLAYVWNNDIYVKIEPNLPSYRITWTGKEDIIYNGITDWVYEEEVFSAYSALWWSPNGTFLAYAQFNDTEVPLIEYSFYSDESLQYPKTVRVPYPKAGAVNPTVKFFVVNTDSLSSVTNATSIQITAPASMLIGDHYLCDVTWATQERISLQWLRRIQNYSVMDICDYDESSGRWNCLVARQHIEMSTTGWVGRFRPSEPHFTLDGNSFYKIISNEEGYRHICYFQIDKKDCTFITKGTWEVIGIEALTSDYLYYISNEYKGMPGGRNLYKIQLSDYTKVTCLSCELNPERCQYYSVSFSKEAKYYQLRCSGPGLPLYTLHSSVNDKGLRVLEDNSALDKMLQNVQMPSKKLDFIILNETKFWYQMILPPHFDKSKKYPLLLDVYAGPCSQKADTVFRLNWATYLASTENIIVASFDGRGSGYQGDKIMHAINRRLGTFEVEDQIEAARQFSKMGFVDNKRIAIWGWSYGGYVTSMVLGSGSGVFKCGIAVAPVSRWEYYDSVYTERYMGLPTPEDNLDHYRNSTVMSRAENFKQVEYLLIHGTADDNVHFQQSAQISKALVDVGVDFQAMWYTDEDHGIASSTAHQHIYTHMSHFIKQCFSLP

IC50 | SMILES
16.7 µM | O=C(CN1CCCC1C(=O)N1CCC(F)C1)N1CCCC1 (centres undefined) [2‐[2‐(3‐fluoropyrrolidine‐1‐carbonyl)pyrrolidin‐1‐ yl]‐1‐(pyrrolidin‐1‐yl)ethan‐1‐one]
0.83 µM | O=C(CN1CCCC1C(=O)N1CCC(F)C1)N1CCN(c2ccccn2)CC1 (centres undefined) [2‐[2‐(3‐fluoropyrrolidine‐1‐carbonyl)pyrrolidin‐1‐ yl]‐1‐[4‐(pyridin‐2‐yl)piperazin‐1‐yl]ethan‐1‐one]
0.43 µM | O=C(CN1CCCC1C(=O)N1CCC(F)C1)N1CCN(c2ncccn2)CC1 (centres undefined) [2‐[2‐(3‐fluoropyrrolidine‐1‐carbonyl)pyrrolidin‐1‐ yl]‐1‐[4‐(pyrimidin‐2‐yl)piperazin‐1‐yl]ethan‐1‐ one]
23.8 µM | CCN(CC)CCN1CCCC1C(=O)N1CCC(F)C1 (centres undefined) [diethyl({2‐[2‐(3‐fluoropyrrolidine‐1‐ carbonyl)pyrrolidin‐1‐yl]ethyl})amine]

Continued, compound first:

SMILES | IC50
O=C(CN1CCCC1C(=O)N1CCC(F)C1)N1CCCCCC1 (centres undefined) [1‐(azepan‐1‐yl)‐2‐[2‐(3‐fluoropyrrolidine‐1‐ carbonyl)pyrrolidin‐1‐yl]ethan‐1‐one] | 3.47 µM
O=C(C1CCCN1CCN1CCCCC1)N1CCC(F)C1 (centres undefined) [1‐{2‐[2‐(3‐fluoropyrrolidine‐1‐carbonyl)pyrrolidin‐1‐ yl]ethyl}piperidine] | 6.49 µM
O=C(CN1CCCC1C(=O)N1CCC(F)C1)N1CCCCC1 (centres undefined) [2‐[2‐(3‐fluoropyrrolidine‐1‐carbonyl)pyrrolidin‐1‐ yl]‐1‐(piperidin‐1‐yl)ethan‐1‐one] | 7.88 µM
O=C(C1CCCN1)N1CCC(F)C1 (centres undefined) [3‐fluoro‐1‐(pyrrolidine‐2‐carbonyl)pyrrolidine] | 4.27 µM
CN(C)CCN1CCCC1C(=O)N1CCC(F)C1 (centres undefined) [{2‐[2‐(3‐fluoropyrrolidine‐1‐carbonyl)pyrrolidin‐1‐ yl]ethyl}dimethylamine] | 30.2 µM
